US7271170B2, “Imidazo-pyrimidines and triazolo-pyrimidines: benzodiazepine receptor ligands” (Neurogen Corporation, priority 2003, dated 2007)

Target: benzodiazepine site of the GABAA receptor
Test: Ligand binding assay of Example 6 (3H-Ro15-1788 competition, purified rat cortical membranes)
Details: ligand binding assay of Example 6; Table 5 Ki

| Compound | Ki [nM] |
| --- | --- |
| CCCc1c(Cn2ccnc2-c2cccc(F)n2)ncn2nc(COCC)nc12 [Compound 250, 2-(ethoxymethyl)-7-{[2-(6-fluoropyridin-2-yl)-1H-imidazol-1-yl]methyl}-8-propyl[1,2,4]triazolo[1,5-c]pyrimidine] | < 1000 |
| CCCc1c(Cn2ccnc2-c2ncccc2F)ncn2nc(OC)nc12 [Compound 246, 7-{[2-(3-fluoropyridin-2-yl)-1H-imidazol-1-yl]methyl}-2-methoxy-8-propyl[1,2,4]triazolo[1,5-c]pyrimidine] | < 1000 |
| COCc1c(Cn2ccnc2-c2ncccc2F)ncn2nc(C)nc12 [Compound 220, 7-[2-(3-Fluoro-pyridin-2-yl)-imidazol-1-ylmethyl]-8-methoxymethyl-2-methyl-[1,2,4]triazolo[1,5-c]pyrimidine] | < 1000 |
| CCCc1c(Cn2ccnc2-c2ncccc2F)ncn2nc(N)nc12 [Compound 248, 7-{[2-(3-fluoropyridin-2-yl)-1H-imidazol-1-yl]methyl}-8-propyl[1,2,4]triazolo[1,5-c]pyrimidin-2-amine] | < 1000 |
| CCOc1c(Cn2ccnc2-c2ncccc2F)ncn2ncnc12 [Compound 245, 8-ethoxy-7-{[2-(3-fluoropyridin-2-yl)-1H-imidazol-1-yl]methyl}[1,2,4]triazolo[1,5-c]pyrimidine] | < 1000 |
| CCc1c(Cn2ccnc2-c2ncccc2F)ncn2nc(C)nc12 [Compound 244, 8-ethyl-7-{[2-(3-fluoropyridin-2-yl)-1H-imidazol-1-yl]methyl}-2-methyl[1,2,4]triazolo[1,5-c]pyrimidine] | < 1000 |
| Cc1nc2c(CCO)c(Cn3ccnc3-c3ncccc3F)ncn2n1 [Compound 231, 2-{7-[2-(3-Fluoro-pyridin-2-yl)-imidazol-1-ylmethyl]-2-methyl-[1,2,4]triazolo[1,5-c]pyrimidin-8-yl}-ethanol] | < 1000 |
| CCCc1c(Cn2cc(Cl)nc2-c2ncccc2F)ncn2ncnc12 [Compound 241, 7-[4-Chloro-2-(3-fluoro-pyridin-2-yl)-imidazol-1-ylmethyl]-8-propyl-[1,2,4]triazolo[1,5-c]pyrimidine] | < 1000 |
| CCCc1c(Cn2ccnc2-c2cccc(F)n2)nc(C)n2nc(C)nc12 [Compound 217, 7-[2-(6-Fluoro-pyridin-2-yl)-imidazol-1-ylmethyl]-2,5-dimethyl-8-propyl-[1,2,4]triazolo[1,5-c]pyrimidine] | < 1000 |
| CCCc1c(Cn2ccnc2-c2ncccc2C#N)ncn2nc(C)nc12 [Compound 242, 2-[1-(2-methyl-8-propyl-[1,2,4]triazolo[1,5-c]pyrimidin-7-ylmethyl)-1H-imidazol-2-yl]-nicotinonitrile] | < 1000 |
| CCCc1c(Cn2ccnc2-c2ncccc2F)ncn2nc(C(=O)OCC)nc12 [Compound 238, 7-[2-(3-Fluoro-pyridin-2-yl)-imidazol-1-ylmethyl]-8-propyl-[1,2,4]triazolo[1,5-c]pyrimidine-2-carboxylic acidethyl ester] | < 1000 |
| CCc1nc2c(CC)c(Cn3ccnc3-c3cc(F)ccc3C)ncn2n1 [Compound 219, 2,8-Diethyl-7-[2-(5-fluoro-2-methyl-phenyl)-imidazol-1-ylmethyl]-[1,2,4]triazolo[1,5-c]pyrimidine] | < 1000 |
| Cc1nc2c(CCCO)c(Cn3ccnc3-c3ncccc3F)ncn2n1 [Compound 228, 3-{7-[2-(3-Fluoro-pyridin-2-yl)-imidazol-1-ylmethyl]-2-methyl-[1,2,4]triazolo[1,5-c]pyrimidin-8-yl}-propan-1-ol] | < 1000 |
| CCC(O)c1c(Cn2ccnc2-c2cccc(F)n2)ncn2nc(C)nc12 (stereo not shown) [Compound 221, 1-{7-[2-(6-Fluoro-pyridin-2-yl)-imidazol-1-ylmethyl]-2-methyl-[1,2,4]triazolo[1,5-c]pyrimidin-8-yl}-propan-1-ol] | < 1000 |
| Cc1nc2c(CCCCl)c(Cn3ccnc3-c3ncccc3F)ncn2n1 [Compound 230, 8-(3-Chloro-propyl)-7-[2-(3-fluoro-pyridin-2-yl)-imidazol-1-ylmethyl]-2-methyl-[1,2,4]triazolo[1,5-c]pyrimidine] | < 1000 |
| CCc1c(Cn2ccnc2-c2ncccc2F)ncn2ncnc12 [Compound 234, 8-ethyl-7-{[2-(3-fluoropyridin-2-yl)-1H-imidazol-1-yl]methyl}[1,2,4]triazolo[1,5-c]pyrimidine] | < 1000 |
| N#Cc1cccc(-c2nccn2Cc2ncn3ncnc3c2CCCF)n1 [Compound 237, 6-{1-[8-(3-Fluoro-propyl)-[1,2,4]triazolo[1,5-c]pyrimidin-7-ylmethyl]-1H-imidazol-2-yl}-pyridine-2-carbonitrile] | < 1000 |
| CCCc1c(Cn2ccnc2-c2ncccc2F)ncn2nc(C(C)(C)O)nc12 [Compound 249, 2-(7-{[2-(3-fluoropyridin-2-yl)-1H-imidazol-1-yl]methyl}-8-propyl[1,2,4]triazolo[1,5-c]pyrimidin-2-yl)propan-2-ol] | < 1000 |
| CCCc1c(Cn2ccnc2-c2cccc(C(F)(F)F)n2)ncn2ncnc12 [Compound 235, 8-Propyl-7-[2-(6-trifluoromethyl-pyridin-2-yl)-imidazol-1-ylmethyl]-[1,2,4]triazolo[1,5-c]pyrimidine] | < 1000 |
| CCCc1c(Cn2ccnc2-c2ncccc2F)ncn2nc(C#N)nc12 [Compound 240, 7-[2-(3-Fluoro-pyridin-2-yl)-imidazol-1-ylmethyl]-8-propyl-[1,2,4]triazolo[1,5-c]pyrimidine-2-carbonitrile] | < 1000 |
| CCOc1c(Cn2ccnc2-c2ncccc2F)ncn2nc(C)nc12 [Compound 243, 8-Ethoxy-7-[2-(3-fluoro-pyridin-2-yl)-imidazol-1-ylmethyl]-2-methyl-[1,2,4]triazolo[1,5-c]pyrimidine] | < 1000 |
| N#Cc1cccnc1-c1nccn1Cc1ncn2ncnc2c1CCCF [Compound 236, 2-{1-[8-(3-Fluoro-propyl)-[1,2,4]triazolo[1,5-c]pyrimidin-7-ylmethyl]-1H-imidazol-2-yl}-nicotinonitrile] | < 1000 |
| CCCc1c(Cn2ccnc2-c2ncccc2F)ncn2nc(OCC)nc12 [Compound 247, 2-ethoxy-7-{[2-(3-fluoropyridin-2-yl)-1H-imidazol-1-yl]methyl}-8-propyl[1,2,4]triazolo[1,5-c]pyrimidine] | < 1000 |
| C/C=C/c1c(Cn2ccnc2-c2ncccc2F)ncn2nc(C)nc12 [Compound 224, 7-[2-(3-Fluoro-pyridin-2-yl)-imidazol-1-ylmethyl]-2-methyl-8-propenyl-[1,2,4]triazolo[1,5-c]pyrimidine] | < 1000 |
| Cc1nc2c(CCCF)c(Cn3ccnc3-c3ncccc3F)ncn2n1 [Compound 232, 8-(3-Fluoro-propyl)-7-[2-(3-fluoro-pyridin-2-yl)-imidazol-1-ylmethyl]-2-methyl-[1,2,4]triazolo[1,5-c]pyrimidine] | < 1000 |

Next, values leading:

| Ki [nM] | Compound |
| --- | --- |
| < 1000 | CCCc1c(Cn2ccnc2-c2ncccc2F)ncn2nc(C(=O)OC)nc12 [Compound 251, methyl 7-{[2-(3-fluoropyridin-2-yl)-1H-imidazol-1-yl]methyl}-8-propyl[1,2,4]triazolo[1,5-c]pyrimidine-2-carboxylate] |
| < 1000 | CCCc1c(Cn2ccnc2-c2ncccc2F)ncn2nc(COC(C)C)nc12 [Compound 263, 7-{[2-(3-fluoropyridin-2-yl)-1H-imidazol-1-yl]methyl}-2-(isopropoxymethyl)-8-propyl[1,2,4]triazolo[1,5-c]pyrimidine] |
| < 1000 | CCCc1c(Cn2ccnc2-c2ncccc2F)ncn2nc(CC(F)(F)F)nc12 [Compound 257, 7-{[2-(3-fluoropyridin-2-yl)-1H-imidazol-1-yl]methyl}-8-propyl-2-(2,2,2-trifluoroethyl)[1,2,4]triazolo[1,5-c]pyrimidine] |
| < 1000 | CCCc1c(Cn2ccnc2-c2ncccc2F)ncn2nc(C3CCCO3)nc12 (stereo not shown) [Compound 254, 7-{[2-(3-fluoropyridin-2-yl)-1H-imidazol-1-yl]methyl}-8-propyl-2-(tetrahydrofuran-2-yl)[1,2,4]triazolo[1,5-c]pyrimidine] |
| < 1000 | CCCc1c(Cn2ccnc2-c2ncccc2F)ncn2nc(Cl)nc12 [Compound 256, 2-chloro-7-{[2-(3-fluoropyridin-2-yl)-1H-imidazol-1-yl]methyl}-8-propyl[1,2,4]triazolo[1,5-c]pyrimidine] |
| < 1000 | CCCc1c(Cn2ccnc2-c2ncccc2F)ncn2nc(-c3nccs3)nc12 [Compound 258, 7-{[2-(3-fluoropyridin-2-yl)-1H-imidazol-1-yl]methyl}-8-propyl-2-(1,3-thiazol-2-yl)[1,2,4]triazolo[1,5-c]pyrimidine] |
| < 1000 | CCCc1c(Cn2ccnc2-c2cccc(C#N)n2)ncn2nc(COCC)nc12 [Compound 260, 6-(1-{[2-(ethoxymethyl)-8-propyl[1,2,4]triazolo[1,5-c]pyrimidin-7-yl]methyl}-1H-imidazol-2-yl)pyridine-2-carbonitrile] |
| < 1000 | CCCc1c(Cn2ccnc2-c2ncccc2F)ncn2nc(N(CCC)CCC)nc12 [Compound 259, 7-{[2-(3-fluoropyridin-2-yl)-1H-imidazol-1-yl]methyl}-N,N,8-tripropyl[1,2,4]triazolo[1,5-c]pyrimidin-2-amine] |
| < 1000 | CCCc1c(Cn2ccnc2-c2ncccc2F)ncn2nc(COCC)nc12 [Compound 261, 2-(ethoxymethyl)-7-{[2-(3-fluoropyridin-2-yl)-1H-imidazol-1-yl]methyl}-8-propyl[1,2,4]triazolo[1,5-c]pyrimidine] |
| < 1000 | CCCc1c(Cn2ccnc2-c2ncccc2F)ncn2nc(COCC(F)(F)F)nc12 [Compound 255, 7-{[2-(3-fluoropyridin-2-yl)-1H-imidazol-1-yl]methyl}-8-propyl-2-[(2,2,2-trifluoroethoxy)methyl][1,2,4]triazolo[1,5-c]pyrimidine] |
| < 1000 | CCCc1c(Cn2ccnc2-c2cccc(C#N)n2)ncn2nc(COC(C)C)nc12 [Compound 264, 6-(1-{[2-(isopropoxymethyl)-8-propyl[1,2,4]triazolo[1,5-c]pyrimidin-7-yl]methyl}-1H-imidazol-2-yl)pyridine-2-carbonitrile] |
| < 1000 | CCCc1c(Cn2ccnc2-c2cccc(F)n2)ncn2nc(C(C)(C)O)nc12 [Compound 252, 2-(7-{[2-(6-fluoropyridin-2-yl)-1H-imidazol-1-yl]methyl}-8-propyl[1,2,4]triazolo[1,5-c]pyrimidin-2-yl)propan-2-ol] |
